Molecules are shown by their SMILES.

In test [1] the target is Phosphatidylinositol 4,5-bisphosphate 3-kinase catalytic subunit alpha isoform (Homo sapiens, UniProt P42336). In words: Inhibition of PI3Kalpha.
In test [2] the target is Mast/stem cell growth factor receptor Kit (Homo sapiens) (UniProt P10721). In words: Inhibition of cKit assessed as activity remaining at 10 uM.
Test [3] concerns the target Tyrosine-protein kinase SYK (Homo sapiens) (UniProt P43405). In words: Inhibition of Syk assessed as activity remaining at 10 uM.
The target in test [4] is T1, Tyrosine-protein kinase ITK/TSK (Homo sapiens) (UniProt Q08881).
T1 sequence (whole entry): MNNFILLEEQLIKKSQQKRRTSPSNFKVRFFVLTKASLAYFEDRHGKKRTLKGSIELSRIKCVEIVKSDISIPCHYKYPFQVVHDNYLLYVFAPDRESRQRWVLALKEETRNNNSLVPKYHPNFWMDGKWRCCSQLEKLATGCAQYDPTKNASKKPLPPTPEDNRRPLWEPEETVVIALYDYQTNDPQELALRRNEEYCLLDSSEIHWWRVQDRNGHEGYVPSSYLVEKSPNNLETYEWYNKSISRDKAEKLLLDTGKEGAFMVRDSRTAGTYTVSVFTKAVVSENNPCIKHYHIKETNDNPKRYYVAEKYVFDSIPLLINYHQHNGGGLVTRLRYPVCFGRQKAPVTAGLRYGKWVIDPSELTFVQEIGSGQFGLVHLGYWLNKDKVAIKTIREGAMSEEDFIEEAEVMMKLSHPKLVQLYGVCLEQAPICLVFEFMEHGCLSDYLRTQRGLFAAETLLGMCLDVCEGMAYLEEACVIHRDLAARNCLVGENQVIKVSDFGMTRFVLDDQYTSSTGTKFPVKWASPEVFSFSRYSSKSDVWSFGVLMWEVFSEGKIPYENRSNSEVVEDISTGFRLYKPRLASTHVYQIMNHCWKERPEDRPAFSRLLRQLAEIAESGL
The test is described as follows: Inhibition of Itk assessed as activity remaining at 10 uM.

For test [5], the target named is T2, Cytoplasmic tyrosine-protein kinase BMX (Homo sapiens) (UniProt P51813).
T2 sequence (whole entry): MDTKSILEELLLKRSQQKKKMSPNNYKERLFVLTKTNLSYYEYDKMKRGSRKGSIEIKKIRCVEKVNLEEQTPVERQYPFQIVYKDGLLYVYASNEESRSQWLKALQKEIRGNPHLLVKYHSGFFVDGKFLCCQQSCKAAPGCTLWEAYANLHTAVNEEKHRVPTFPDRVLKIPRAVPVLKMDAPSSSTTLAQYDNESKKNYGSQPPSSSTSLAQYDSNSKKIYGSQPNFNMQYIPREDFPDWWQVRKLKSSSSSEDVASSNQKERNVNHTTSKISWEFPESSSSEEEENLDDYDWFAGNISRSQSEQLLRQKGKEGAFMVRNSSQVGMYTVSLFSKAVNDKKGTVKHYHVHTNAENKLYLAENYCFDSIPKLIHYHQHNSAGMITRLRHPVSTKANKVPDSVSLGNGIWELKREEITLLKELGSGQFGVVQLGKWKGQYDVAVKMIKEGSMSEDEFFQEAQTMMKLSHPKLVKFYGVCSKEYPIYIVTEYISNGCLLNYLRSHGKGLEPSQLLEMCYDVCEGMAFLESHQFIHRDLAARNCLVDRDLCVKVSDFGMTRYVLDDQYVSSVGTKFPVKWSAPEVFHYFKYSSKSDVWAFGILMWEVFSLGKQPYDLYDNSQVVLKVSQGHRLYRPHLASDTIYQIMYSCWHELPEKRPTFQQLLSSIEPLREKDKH
In words: Inhibition of Bmx assessed as activity remaining at 10 uM.

Test [6] addresses Homeodomain-interacting protein kinase 1 (Homo sapiens) (UniProt Q86Z02). The test is described as follows: Inhibition of HIPK1 assessed as activity remaining at 10 uM.
Test [7] deals with Tyrosine-protein kinase ABL1 (Homo sapiens) (UniProt P00519). In words: Inhibition of Abl assessed as activity remaining at 10 uM.
Test [8] deals with Macrophage colony-stimulating factor 1 receptor (Homo sapiens) (UniProt P07333). The test is described as follows: Inhibition of Fms assessed as activity remaining at 10 uM.
Macrophage colony-stimulating factor 1 receptor (Homo sapiens), sequence (P07333 whole entry): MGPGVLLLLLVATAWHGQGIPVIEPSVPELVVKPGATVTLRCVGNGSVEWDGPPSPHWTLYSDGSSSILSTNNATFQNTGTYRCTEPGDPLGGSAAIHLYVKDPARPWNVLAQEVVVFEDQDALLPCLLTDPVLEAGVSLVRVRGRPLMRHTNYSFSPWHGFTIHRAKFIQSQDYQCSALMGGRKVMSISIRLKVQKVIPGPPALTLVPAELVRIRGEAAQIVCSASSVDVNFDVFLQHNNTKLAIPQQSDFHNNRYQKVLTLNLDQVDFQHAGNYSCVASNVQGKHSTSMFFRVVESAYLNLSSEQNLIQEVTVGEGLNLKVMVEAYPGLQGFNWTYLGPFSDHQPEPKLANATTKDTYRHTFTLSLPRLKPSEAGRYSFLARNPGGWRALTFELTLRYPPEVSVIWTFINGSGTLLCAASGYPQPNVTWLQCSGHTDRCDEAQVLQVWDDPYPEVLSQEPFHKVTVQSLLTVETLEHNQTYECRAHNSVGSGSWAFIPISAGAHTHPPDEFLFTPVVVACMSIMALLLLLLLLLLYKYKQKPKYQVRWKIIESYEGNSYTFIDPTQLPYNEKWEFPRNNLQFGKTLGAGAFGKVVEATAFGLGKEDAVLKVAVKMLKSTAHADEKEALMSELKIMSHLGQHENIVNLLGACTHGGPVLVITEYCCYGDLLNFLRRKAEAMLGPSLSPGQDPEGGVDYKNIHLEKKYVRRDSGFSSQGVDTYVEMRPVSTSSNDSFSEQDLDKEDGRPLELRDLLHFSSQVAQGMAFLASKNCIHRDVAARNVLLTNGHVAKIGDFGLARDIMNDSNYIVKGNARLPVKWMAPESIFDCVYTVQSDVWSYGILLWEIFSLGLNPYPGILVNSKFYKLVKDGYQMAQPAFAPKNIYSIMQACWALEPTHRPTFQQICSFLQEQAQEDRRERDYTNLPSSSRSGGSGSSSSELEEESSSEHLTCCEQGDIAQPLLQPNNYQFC
Test [9] addresses Mitogen-activated protein kinase 14 (Homo sapiens) (UniProt Q16539). In words: Inhibition of p38alpha assessed as activity remaining at 10 uM.
Test [10] has as its target Serine/threonine-protein kinase mTOR (Homo sapiens, UniProt P42345). The test is described as follows: Inhibition of mTOR-mediated S6 phosphorylation in human PC3 cells. Type of test: cell-based, PC-3.
Test [11] in a line: Inhibition of CK2 assessed as activity remaining at 10 uM.
Test [12] addresses T3, Aurora kinase A (Homo sapiens) (UniProt O14965).
T3 sequence (whole entry): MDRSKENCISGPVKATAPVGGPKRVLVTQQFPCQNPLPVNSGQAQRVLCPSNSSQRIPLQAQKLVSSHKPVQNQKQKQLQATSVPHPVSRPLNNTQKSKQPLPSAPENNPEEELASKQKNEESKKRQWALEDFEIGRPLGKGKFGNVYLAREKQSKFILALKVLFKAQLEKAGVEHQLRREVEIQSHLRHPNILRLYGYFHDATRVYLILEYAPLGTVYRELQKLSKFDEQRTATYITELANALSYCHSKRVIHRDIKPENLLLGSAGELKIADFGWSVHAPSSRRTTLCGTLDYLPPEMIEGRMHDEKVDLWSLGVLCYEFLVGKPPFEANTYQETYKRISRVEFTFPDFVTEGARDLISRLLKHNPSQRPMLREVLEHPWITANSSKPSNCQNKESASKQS
The test is described as follows: Inhibition of Aurora-A assessed as activity remaining at 10 uM.

Mast/stem cell growth factor receptor Kit (Homo sapiens), sequence (P10721 whole entry): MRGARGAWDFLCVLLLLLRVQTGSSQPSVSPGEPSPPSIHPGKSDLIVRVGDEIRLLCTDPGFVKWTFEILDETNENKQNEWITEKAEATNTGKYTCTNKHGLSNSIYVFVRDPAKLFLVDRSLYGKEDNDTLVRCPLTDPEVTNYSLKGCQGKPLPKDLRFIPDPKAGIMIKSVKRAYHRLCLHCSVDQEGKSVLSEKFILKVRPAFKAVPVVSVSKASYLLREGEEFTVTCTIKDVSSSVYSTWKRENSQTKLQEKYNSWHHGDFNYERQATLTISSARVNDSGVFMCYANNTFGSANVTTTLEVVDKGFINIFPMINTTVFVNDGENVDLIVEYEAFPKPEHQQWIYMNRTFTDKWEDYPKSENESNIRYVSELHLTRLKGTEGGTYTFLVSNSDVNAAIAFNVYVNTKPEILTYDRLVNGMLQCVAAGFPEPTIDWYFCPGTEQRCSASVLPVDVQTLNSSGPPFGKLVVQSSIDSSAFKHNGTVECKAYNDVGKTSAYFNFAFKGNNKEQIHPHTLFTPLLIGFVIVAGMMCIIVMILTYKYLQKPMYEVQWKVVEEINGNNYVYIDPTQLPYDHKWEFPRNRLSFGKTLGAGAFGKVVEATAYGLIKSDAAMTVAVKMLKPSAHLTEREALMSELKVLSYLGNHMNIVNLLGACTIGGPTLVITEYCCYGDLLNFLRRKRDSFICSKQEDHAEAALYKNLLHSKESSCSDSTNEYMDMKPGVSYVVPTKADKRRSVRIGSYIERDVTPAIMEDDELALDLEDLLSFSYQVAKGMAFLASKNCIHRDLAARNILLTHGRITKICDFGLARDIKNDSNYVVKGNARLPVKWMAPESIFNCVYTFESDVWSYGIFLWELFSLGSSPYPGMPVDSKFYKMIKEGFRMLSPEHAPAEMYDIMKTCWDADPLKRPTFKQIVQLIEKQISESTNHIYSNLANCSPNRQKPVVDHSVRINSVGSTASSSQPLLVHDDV
Mitogen-activated protein kinase 14 (Homo sapiens), sequence (Q16539 whole entry): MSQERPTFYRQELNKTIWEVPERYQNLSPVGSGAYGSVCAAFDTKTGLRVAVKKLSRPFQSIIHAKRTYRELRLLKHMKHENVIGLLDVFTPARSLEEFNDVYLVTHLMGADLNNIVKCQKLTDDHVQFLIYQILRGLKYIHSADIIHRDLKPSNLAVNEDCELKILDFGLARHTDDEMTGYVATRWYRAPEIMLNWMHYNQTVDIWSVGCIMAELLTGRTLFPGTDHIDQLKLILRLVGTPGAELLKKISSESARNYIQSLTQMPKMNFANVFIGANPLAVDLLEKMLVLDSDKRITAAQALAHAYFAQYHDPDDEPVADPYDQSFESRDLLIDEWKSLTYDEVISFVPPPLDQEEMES
Phosphatidylinositol 4,5-bisphosphate 3-kinase catalytic subunit alpha isoform, sequence (P42336 whole entry, canonical isoform): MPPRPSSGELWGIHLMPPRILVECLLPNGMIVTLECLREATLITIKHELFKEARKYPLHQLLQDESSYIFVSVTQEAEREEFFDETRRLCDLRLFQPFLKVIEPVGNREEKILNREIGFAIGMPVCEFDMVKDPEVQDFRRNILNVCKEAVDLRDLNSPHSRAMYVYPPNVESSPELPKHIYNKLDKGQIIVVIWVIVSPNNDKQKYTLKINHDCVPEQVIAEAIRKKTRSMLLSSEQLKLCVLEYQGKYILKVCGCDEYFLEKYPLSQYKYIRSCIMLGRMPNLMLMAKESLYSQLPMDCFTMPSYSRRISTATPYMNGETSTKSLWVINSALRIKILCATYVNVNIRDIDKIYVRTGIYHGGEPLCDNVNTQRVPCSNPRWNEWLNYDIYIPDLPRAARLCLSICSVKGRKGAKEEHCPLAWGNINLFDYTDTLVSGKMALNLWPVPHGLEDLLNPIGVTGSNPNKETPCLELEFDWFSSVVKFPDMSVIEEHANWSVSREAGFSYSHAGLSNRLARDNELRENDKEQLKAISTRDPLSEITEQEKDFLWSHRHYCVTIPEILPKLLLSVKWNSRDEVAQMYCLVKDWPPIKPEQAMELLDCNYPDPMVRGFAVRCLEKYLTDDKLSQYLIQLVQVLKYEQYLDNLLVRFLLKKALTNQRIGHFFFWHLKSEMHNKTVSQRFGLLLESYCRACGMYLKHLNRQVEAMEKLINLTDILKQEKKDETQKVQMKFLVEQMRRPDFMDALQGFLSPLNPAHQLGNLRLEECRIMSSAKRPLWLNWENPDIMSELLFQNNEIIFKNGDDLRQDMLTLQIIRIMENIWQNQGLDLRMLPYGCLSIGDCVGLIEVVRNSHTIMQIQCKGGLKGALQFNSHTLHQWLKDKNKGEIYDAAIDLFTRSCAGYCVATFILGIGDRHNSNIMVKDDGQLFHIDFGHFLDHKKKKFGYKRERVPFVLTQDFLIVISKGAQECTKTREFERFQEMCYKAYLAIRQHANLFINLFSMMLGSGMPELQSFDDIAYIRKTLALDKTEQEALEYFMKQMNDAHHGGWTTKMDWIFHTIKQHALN
Homeodomain-interacting protein kinase 1 (Homo sapiens), sequence (Q86Z02 whole entry, looked up): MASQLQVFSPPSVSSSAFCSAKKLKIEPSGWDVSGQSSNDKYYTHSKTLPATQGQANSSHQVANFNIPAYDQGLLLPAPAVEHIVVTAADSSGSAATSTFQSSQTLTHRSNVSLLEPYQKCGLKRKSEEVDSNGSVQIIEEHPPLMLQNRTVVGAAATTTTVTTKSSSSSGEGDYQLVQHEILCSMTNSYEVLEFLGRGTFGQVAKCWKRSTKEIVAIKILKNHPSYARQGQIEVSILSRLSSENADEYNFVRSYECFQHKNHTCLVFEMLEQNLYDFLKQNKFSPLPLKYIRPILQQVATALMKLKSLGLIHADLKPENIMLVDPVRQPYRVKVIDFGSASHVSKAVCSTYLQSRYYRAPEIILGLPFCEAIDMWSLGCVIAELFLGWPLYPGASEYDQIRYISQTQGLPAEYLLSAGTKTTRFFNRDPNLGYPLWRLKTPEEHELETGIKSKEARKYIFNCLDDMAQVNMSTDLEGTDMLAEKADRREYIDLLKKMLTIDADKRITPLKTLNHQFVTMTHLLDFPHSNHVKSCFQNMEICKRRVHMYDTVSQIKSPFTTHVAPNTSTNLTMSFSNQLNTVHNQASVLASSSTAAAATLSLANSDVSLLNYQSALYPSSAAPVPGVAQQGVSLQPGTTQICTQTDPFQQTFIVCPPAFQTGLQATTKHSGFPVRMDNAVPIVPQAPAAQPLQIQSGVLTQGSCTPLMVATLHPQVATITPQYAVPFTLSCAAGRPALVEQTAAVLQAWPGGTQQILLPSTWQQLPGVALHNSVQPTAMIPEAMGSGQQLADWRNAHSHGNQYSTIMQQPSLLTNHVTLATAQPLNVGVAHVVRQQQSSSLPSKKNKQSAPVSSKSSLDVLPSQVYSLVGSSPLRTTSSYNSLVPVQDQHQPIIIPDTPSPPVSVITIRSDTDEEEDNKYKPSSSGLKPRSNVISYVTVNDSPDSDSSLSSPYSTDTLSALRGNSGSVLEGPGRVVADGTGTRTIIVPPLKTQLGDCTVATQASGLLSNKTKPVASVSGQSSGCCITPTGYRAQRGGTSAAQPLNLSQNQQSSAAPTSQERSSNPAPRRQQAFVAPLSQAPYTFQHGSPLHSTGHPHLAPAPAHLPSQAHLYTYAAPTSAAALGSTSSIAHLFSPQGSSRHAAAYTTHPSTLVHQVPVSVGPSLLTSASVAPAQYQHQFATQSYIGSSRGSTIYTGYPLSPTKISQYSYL

In the case of `CC(C)(O)c1ccc(-c2cnc3[nH]c(=O)n(CC4CCCCC4)c3n2)cc1`, the 50% inhibitory concentration (IC50) – broadly, the concentration that inhibits the measured activity by half – in [1] stood at 21900 nM; in test [10], 1350 nM. Besides, the Activity in test [2] worked out at 83%; in [3] it was 95%; in test [4], 90%; in [5], 85%; in test [6], 94%; in test [7] it was 53%. In addition, the Activity in test [8] came out at 26%; in test [9], 92%; in test [11], 95%; in test [12], 58%.

As to `O=c1[nH]c2ncc(-c3ccc(-c4nc[nH]n4)cc3)nc2n1CC1CCOCC1`, the IC50 in test [1] came to 2600 nM; in test [10], 273 nM. In addition, the Activity in test [2] was 95%; in test [3], 48%; in test [4], 99%; in test [5] it was 93%; in [6], 91%; in test [7] it was 83%. Moreover, the Activity was determined as 37% in [8], 92% in [9], 99% in [11] and 79% in test [12].

In the case of `O=c1[nH]c2ncc(-c3ccc4[nH]cnc4c3)nc2n1CC1CCCCC1`, the results for the half-maximal inhibitory concentration (IC50) in test [1] and in [10] were 20100 nM and 427 nM, respectively. In addition, the Activity in test [2] came out at 94%; in [3], 40%; in test [4], 96%; in test [5], 92%; in test [6], 84%; in [7], 23%. For the same compound, the Activity was 23% in test [8], 75% in test [9], 73% in test [11] and 32% in test [12].
